For the assay, the target named is T1, Human Factor D (Homo sapiens, UniProt P00746).
T1 construct: purified from human serum; purchased Complement Technology, Inc; host or cells: human serum (natural protein, not recombinant)
In words: Human Factor D Assay. Type of assay: biochemical. The note with it: Human Factor D 80 nM, substrate Z-L-Lys-SBzl, read-out: IC50 (Stars). The procedure, abridged: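 Serum-purified human factor D (80 nM final) preincubated 5 min at room temperature with test compound in 50 mM Tris, 1M NaCl, pH 7.5. Z-L-Lys-SBzl substrate and DTNB then added, each at 100 μM final. IC50 from nonlinear regression of reaction rate against compound concentration.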

Where two headings read alike, the source gives them in different places. Where only a bound is given, the exact number is not on record here.

T1 sequence (P00746 26-253): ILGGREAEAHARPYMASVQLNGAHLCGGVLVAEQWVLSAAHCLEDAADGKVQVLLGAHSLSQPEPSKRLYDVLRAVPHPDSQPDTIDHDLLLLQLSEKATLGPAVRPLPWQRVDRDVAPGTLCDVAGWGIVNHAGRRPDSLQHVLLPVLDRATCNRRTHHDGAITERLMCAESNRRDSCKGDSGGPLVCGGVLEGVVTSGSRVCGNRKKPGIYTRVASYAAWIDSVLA

On to `CC(=O)c1nn(CC(=O)N2[C@H](C(=O)Nc3nc(Br)ccc3C3CC3)C[C@@]3(C)C[C@@H]23)c2c(C)cc(-c3cnc(CO)nc3)cc12` [Compound 66, (1R,3S,5R)-2-(2-(3-acetyl-5-(2-(hydroxymethyl)pyrimidin-5-yl)-7-methyl-11H-indazol-1-yl)acetyl)-N-(6-bromo-3-cyclopropylpyridin-2-yl)-5-methyl-2-azabicyclo[3.1.0]hexane-3-carboxamide], for which, for the setting “Table 2”, the IC50 (as a rule, the concentration that inhibits the measured activity by half) was below 1 µM.

Regarding `CC(=O)c1nn(CC(=O)N2[C@H](C(=O)Nc3ccc(F)c(Br)n3)C[C@@]3(C)C[C@@H]23)c2c(C)cc(-c3cnc(CO)nc3)cc12` [Compound 120, (1R,3S,5R)-2-(2-(3-acetyl-5-(2-(hydroxymethyl)pyrimidin-5-yl)-7-methyl-1H-indazol-1-yl)acetyl)-N-(6-bromo-5-fluoropyridin-2-yl)-5-methyl-2-azabicyclo[3.1.0]hexane-3-carboxamide], the IC50 (Table 2) is below 1 µM.

For `COCc1cc(-c2cnc(C)nc2)cc2c(C(C)=O)cn(CC(=O)N3[C@H](C(=O)Nc4nc(C(F)(F)F)ccc4C)C[C@@]4(C)C[C@@H]34)c12` [Compound 238, (1R,3S,5R)-2-(2-(3-acetyl-7-(methoxymethyl)5-(2-methylpyrimidin-5-yl)-1H-indol-1-yl)acetyl)-5-methyl-N-(3-methyl-6-(trifluoromethyl)pyridin-2-yl)-2-azabicyclo[3.1.0]hexane-3-carboxamide], the IC50 (Table 2) was below 1 µM.

Consider `CC(=O)c1nn(CC(=O)N2[C@H](C(=O)Nc3nc(Br)ccc3C)C[C@@]3(C)C[C@@H]23)c2c(C)cc(-c3ccnc(CO)c3)cc12` [Compound 132, (1R,3S,5R)-2-(2-(3-acetyl-5-(2-(hydroxymethyl)pyridin-4-yl)-7-methyl-1H-indazol-1-yl)acetyl)-N-(6-bromo-3-methylpyridin-2-yl)-5-methyl-2-azabicyclo[3.1.0]hexane-3-carboxamide], for which the IC50 (Table 2) was below 1 µM.

For the compound `CC(=O)c1nn(CC(=O)N2[C@H](C(=O)N[C@@H](C)CCc3ccccc3)C[C@@]3(C)C[C@@H]23)c2ccc(-c3cnc(C)nc3)cc12` [Compound 12, (1R,3S,5R)-2-(2-(3-Acetyl-5-(2-methylpyrimidin-5-yl)-1H-indazol-1-yl)acetyl)-5-methyl-N—((S)-4-phenylbutan-2-yl)-2-azabicyclo[3.1.0]hexane-3-carboxamide], the IC50 (assay of Example 3) was below 1 µM.

Consider `COC[C@@]12C[C@@H](C(=O)Nc3nc(C(F)(F)F)ccc3C)N(C(=O)Cn3cc(C(C)=O)c4cc(-c5cnc(C)nc5)cc(C)c43)[C@@H]1C2` [Compound 229, (1R,3S,5S)-2-(2-(3-acetyl-7-methyl-5-(2-methylpyrimidin-5-yl)-1H-indol-1-yl)acetyl)-5-(methoxymethyl)-N-(3-methyl-6-(trifluoromethyl)pyridin-2-yl)-2-azabicyclo[3.1.0]hexane-3-carboxamide], for which the IC50 (Table 2) is below 1 µM.

Turning to `CC(=O)c1nn(CC(=O)N2C[C@H](F)C[C@H]2C(=O)Nc2cccc(Br)n2)c2ccc(-c3ccc(C)nc3)cc12` [Compound 33], the IC50 (assay of Example 3) is below 1 µM.

Consider `CC(=O)c1nn(CC(=O)N2C[C@H](F)C[C@H]2C(=O)Nc2cccc(Br)n2)c2ccc(-c3ccc(C)c(F)c3)cc12` [Compound 34, (2S,4R)-1-(2-(3-Acetyl-5-(3-fluoro-4-methylphenyl)-1H-indazol-1-yl)acetyl)-N-(6-bromopyridin-2-yl)-4-fluoropyrrolidine-2-carboxamide], for which the half-maximal inhibitory concentration (IC50) (assay of Example 3) is below 1 µM.

In the case of `CC(=O)c1nn(CC(=O)N2[C@H]3CC[C@H](C3)[C@H]2C(=O)Nc2nc(Br)c(F)cc2C)c2c(C3CC3)cc(-c3cnc(C)nc3)cc12` [Compound 122, (1S,3S,4R)-2-(2-(3-Acetyl-7-cyclopropyl-5-(2-methylpyrimidin-5-yl)-1H-indazol-1-yl)acetyl)-N-(6-bromo-5-fluoro-3-methylpyridin-2-yl)-2-azabicyclo[2.2.1]heptane-3-carboxamide], for the setting “Table 2”, the IC50 was below 1 µM.

Values taken from patent US20230022157A1 (Achillion Pharmaceuticals, Inc., priority 2018, published 2023).
